Assay results published in PMC10298982, “Stability Characterization of the Novel Anti-Cancer HM-10/10 HDL-Mimetic Peptide” (International Journal of Molecular Sciences, 2023).
Several values for one entry are separate records, joined by “and”; a condition that tells them apart may be missing. Identical values can stand only once. Ends that are not written are not given here.

How the values were obtained:
[1] = Metabolic stability in CD-1 mouse liver microsomes; format: in vitro ADME
CYP2B6 [2] = test: CYP2B6 induction (mRNA expression) in single-donor human hepatocytes; format: in vitro ADME
Protocol: RNA isolation and quantification: E-Z 96 Total RNA Kit (Omega Bio-tek, Catalog No. R1034-02) was used for RNA isolation and Quant-iT RNA assay kit (ThermoFisher, Catalog No. Q33140) was used for RNA quantification. The plates were removed from a −80 °C freezer and equilibrated to room temperature. RNA was extracted using the manufacturer’s recommended protocol. Eighty-one microliters of 100% ethanol were added into each well containing 150 µL of lysed sample to make a final ethanol concentration at 35%.
cDNA generation: For cDNA generation, a High-Capacity cDNA Reverse Transcription Kit (Applied Biosystems, Catalog No. 4319983) and QuantStudio 3 PCR system (Applied Biosystems) were used. In this step, 2X Reverse Transcription Master Mix was prepared using the contents of the kit. Then, 10 µL of total RNA was added to 10 µL of 2X Reverse Transcription Master Mix in a microplate and the plate was sealed. This plate was then run in a thermocycler to generate cDNA.
Real time PCR: SsoAdvanced Universal SYBR® Green Supermix (BIO-RAD, Catalog No. 172-5270) and the QuantStudio 3 Real-Time PCR system (Applied Biosystems) were used to perform real-time PCR on the generated cDNA. In this step, a PCR mix was prepared using PCR Supermix, SYBR® primers for the targeted genes, and nuclease-free water. Two microliters of ten-fold diluted cDNA samples (5 µL of cDNA into 45 μL of nuclease-free water) were added to 8 µL of PCR Mix in a microplate and sealed. This plate was then run through the Real-Time PCR system to generate the mRNA expression data.
• Human GAPDH • F: […] • R: […] • Human CYP1A2 • Unique Assay ID: qHsaCID0015160 • Chromosome Location: 15:75045562-75047256 • Human CYP2B6 • F: […] • R: […] • Human CYP3A4 • F: […] • R: […]

[3] = Stability in simulated intestinal fluid (SIF); format: in vitro ADME
Protocol: When developing any potentially oral-route pharmaceutical agent, the denaturing and pepsin-rich environment of the stomach must be considered. The stability of HM-10/10 was tested in simulated gastric fluid (SGF) and simulated intestinal fluid (SIF) over 120 min. […] Samples were tested at 2 μM.
For the HM-10/10 stability assay in simulated gastric and intestinal fluids, propantheline was used to confirm retention time and carbutamide was used as the internal standard for calculations.

[4] = Metabolic stability in human liver microsomes; format: in vitro ADME
human plasma proteins = test: Protein binding in human plasma (ultracentrifugation); format: in vitro ADME; conditions: Human plasma (K2EDTA); 2 μM; 2.5 h at 37 °C
CYP2B6 [5] = test: CYP2B6 induction (enzyme activity) in single-donor human hepatocytes; conditions: for Fold Increase (Enzyme Activity) Mean: mean of three lots
Protocol: The transport medium was replaced with 200 μL of warm (37 °C) incubation medium (InVitroGRO HI, BioIVT Catalog No. Z99009) and the plate was placed in a humidified 5% carbon dioxide incubator at 37 °C for 24 h.
In addition, test article vehicle (PBS) was added to warm (37°C) InVitroGRO HI Medium in a 5:95 (v:v) ratio. […] The plates were removed from the incubator and the hepatocytes were prepared for the induction assay by replacing the cell culture medium with medium containing either the test article, a control inducer, or vehicle control (200 µL per well). The hepatocyte plates were returned to the cell culture incubator and incubated for 24 h.
On Day 3, induction was repeated following the same steps as described above for the previous day, and plates were returned to the cell culture incubator for an additional 24 h.
After aliquots were taken to measure test article stability, all the remaining medium from each well in the hepatocyte plate was removed, all wells were washed once using 200 μL of blank assay buffer, and then 100 μL of the 1000-fold diluted substrate solutions were added to the appropriate wells. The assay plate was returned to the humidified 5% carbon dioxide incubator at 37 °C for 1 h incubation.
At the end of the incubation time, 100 μL of mRNA lysis buffer was added to each well to stop the reaction. Fifty microliters of this reaction mixture were transferred into a new plate and quenched with 200 μL of ice-cold acetonitrile containing a CYP-specific stable labeled internal standard (250 ng/mL acetaminophen-d4, 250 ng/mL hydroxybupropion-d6, or 250 ng/mL hydroxytestosterone-d3). After removal of the aliquots from the plate for enzyme activity determination, the assay plates were sealed and stored in a −70 °C freezer until use for RT-PCR, mRNA analysis.
For the induction assay samples, an aliquot (50 µL) of the supernatant was transferred to a new plate and diluted with 100 µL Milli-Q water. For the test article stability samples, an aliquot (50 µL) of the supernatant was transferred to a new plate and diluted with 60 µL 0.1% formic acid in Milli-Q water. These samples for the enzyme activity assay and article stability test were refrigerated for storage until analysis. […]
HM1010: Induction Potential of Cytochrome P450 Enzymes
(CYP1A2, CYP2B6 and CYP3A4) Using Human Cryopreserved Hepatocytes
Testing Facility Study No.
The purpose of this in-vitro study was to determine the induction potential of HM1010 on human
cytochrome P450 (CYP) isoenzyme (1A2, 2B6 and 3A4) activity. The study design is
Matrix: Inducible cryopreserved human hepatocytes three single-donor lots
Assay Buffer: InVitroGRO KHB
Substrates: Phenacetin (1A2), Bu propion (2B6), and Testosterone (3A4)
Assay conditions: 48 hours at 37°C in humidified 5% carbon dioxide incubator
Analysis: LC-MS/MS (enzyme activity) and mRNA analysis

CLint scaled ([1]; CD-1 mouse liver microsomes 0.5 mg protein/mL, 2 μM): 170 mL/min/kg
half-life at 2 µM ([1]; pooled liver microsomes, pH 7.4, CD-1 mouse liver microsomes 0.5 mg protein/mL): 32 min
remaining at 2 h, 2 µM ([1]; pooled liver microsomes, pH 7.4, CD-1 mouse liver microsomes 0.5 mg protein/mL, read-out: % Remaining at 120 min): 0.8%
Comments (mRNA induction) (CYP2B6 [2]; 2 µM): Induction Observed
Fold Increase (mRNA Expression) Lot HH1086 (CYP2B6 [2]; 2 µM): 2.03 fold
Fold Increase (mRNA Expression) Lot HH1142 (CYP2B6 [2]; 2 µM): 9.76 fold
Fold Increase (mRNA Expression) Lot HH1144 (CYP2B6 [2]; 2 µM): 2.86 fold
Fold Increase (mRNA Expression) Mean of 3 Lots (CYP2B6 [2]; 2 µM): 4.88 fold
Comments (mRNA induction) (CYP2B6 [2]; 10 µM): Induction Observed
Fold Increase (mRNA Expression) Lot HH1086 (CYP2B6 [2]; 10 µM): 2.54 fold
Fold Increase (mRNA Expression) Lot HH1142 (CYP2B6 [2]; 10 µM): 7.08 fold
Fold Increase (mRNA Expression) Lot HH1144 (CYP2B6 [2]; 10 µM): 3.33 fold
Fold Increase (mRNA Expression) Mean of 3 Lots (CYP2B6 [2]; 10 µM): 4.32 fold
Comments (mRNA induction) (CYP2B6 [2]; 25 µM): Induction Observed
Fold Increase (mRNA Expression) Lot HH1086 (CYP2B6 [2]; 25 µM): 1.26 fold
Fold Increase (mRNA Expression) Lot HH1142 (CYP2B6 [2]; 25 µM): 5.04 fold
Fold Increase (mRNA Expression) Lot HH1144 (CYP2B6 [2]; 25 µM): 1.92 fold
Fold Increase (mRNA Expression) Mean of 3 Lots (CYP2B6 [2]; 25 µM): 2.74 fold
Compound detected after 20 min under SIF conditions ([3]; SIF, 2 μM, 20 min): no HM-10/10 could be detected
half-life at 2 µM ([3]; simulated intestinal fluid (SIF), SIF pH 5.5): 2.72 min
CLint scaled ([4]; Human liver microsomes 0.5 mg protein/mL, 2 μM): 61.5 mL/min/kg
half-life at 2 µM ([4]; pooled liver microsomes, pH 7.4, Human liver microsomes 0.5 mg protein/mL): 20.3 min
remaining at 2 h, 2 µM ([4]; pooled liver microsomes, pH 7.4, Human liver microsomes 0.5 mg protein/mL, read-out: % Remaining at 120 min): 1.4%
% Protein Bound Mean ± SD (human plasma proteins): 79.7% and 79.7 ± 5.5%
% Protein Free Mean ± SD (human plasma proteins): 20.3 ± 5.5%
Fold Increase (Enzyme Activity) Lot HH1086 (CYP2B6 [5]; 2 µM): 3.18 fold
Fold Increase (Enzyme Activity) Lot HH1142 (CYP2B6 [5]; 2 µM): 2.82 fold
Fold Increase (Enzyme Activity) Lot HH1144 (CYP2B6 [5]; 2 µM): 3.00 fold
Fold Increase (Enzyme Activity) Mean (CYP2B6 [5]; 2 µM): 3.00 fold
Fold Increase (Enzyme Activity) Lot HH1086 (CYP2B6 [5]; 10 µM): 4.01 fold
Fold Increase (Enzyme Activity) Lot HH1142 (CYP2B6 [5]; 10 µM): 6.36 fold
Fold Increase (Enzyme Activity) Lot HH1144 (CYP2B6 [5]; 10 µM): 4.52 fold
Fold Increase (Enzyme Activity) Mean (CYP2B6 [5]; 10 µM): 4.96 fold
Fold Increase (Enzyme Activity) Lot HH1086 (CYP2B6 [5]; 25 µM): 2.80 fold
Fold Increase (Enzyme Activity) Lot HH1142 (CYP2B6 [5]; 25 µM): 9.29 fold
Fold Increase (Enzyme Activity) Lot HH1144 (CYP2B6 [5]; 25 µM): 6.73 fold
Fold Increase (Enzyme Activity) Mean (CYP2B6 [5]; 25 µM): 6.27 fold
Sequence: LRKLRKRLLRLVGRQLEEFL [HM-10/10, LRKLRKRLLRLVGRQLEEFL]
